Assay results reported in US12234504B1 (priority 2023, dated 2025).

Tests used:
[1] = system: human DNA topoisomerase IIα; assay: Agarose gel-based human DNA topoisomerase IIα mediated DNA cleavage assay; format: biochemical; conditions: 50 μM etoposide, increasing topoisomerase IIα, FIG. 8A
Description: (§1) FIGS. 8A-8C. […] Fluorescence intensity was measured using a Biotek microplate reader with excitation wavelength of 497 nm and emission wavelength of 525 nm.
DNA Gyrase and Human DNA Topoisomerase IIα Mediated DNA Cleavage Assay.
250 ng of relaxed plasmid pBR322 and 20 nM of E. coli DNA gyrase or human DNA topoisomerase IIα were mixed and incubated in 1×gyrase-mediated DNA cleavage buffer (20 mM Tris-HCl pH 8, 50 mM KAc, 10 mM MgCl2, 2 mM DTT, 1 mM ATP, 0.1 mg/mL BSA) at 37° C. for 15 minutes in the presence of an inhibitor or compound. After the incubation, 0.2% SDS and 0.1 mg/ml proteinase K were added to the reaction mixtures to trap the topoisomerase-inhibitor-DNA complex and digest the topoisomerase, respectively, by incubating for an additional 30 min at 37° C. DNA samples were analyzed in 1% agarose gel containing […] ethidium bromide in 1′TAE buffer and photographed under UV light. […] Etoposide was used as a positive control for human DNA topoisomerase IIα-mediated DNA cleavage assays.

[2] = system: human DNA topoisomerase IIα; assay: Fluorescence-based DNA cleavage assay for human DNA topoisomerase IIα (T5 exonuclease digestion, SYBR Green staining); format: biochemical; conditions: 50 μM etoposide, […] human TopoIIα, FIG. 8C
Description: as §1

SMILES: COc1cc([C@@H]2c3cc4c(cc3[C@@H](O[C@@H]3O[C@@H]5CO[C@@H](C)O[C@H]5[C@H](O)[C@H]3O)[C@H]3COC(=O)[C@H]23)OCO4)cc(OC)c1O [etoposide]
- linear and nicked plasmid DNA products (in words) [1]: progressive increase in the linear and nicked plasmid DNA products
- fluorescence difference between presence and absence of compound (in words) [2]: significant fluorescence difference
